Assays:
[1] = tested on: photothrombosis-induced stroke infarctions; assay: Photothrombosis-induced stroke in mice, TTC-stained brain infarction size; format: in vivo
Description: Photothrombosis-induced Stroke: Photothrombosis was performed as described in Zheng et al 2010 (PloS One 5 (12): e14401). In brief, Rose Bengal is a fluorescent dye that when injected into the vasculature and excited, generates singlet oxygen that damages the endothelial wall and induces a local thrombosis (clot). Using this technique, mice were given a 0.1 mL tail-vein injection of sterilized Rose Bengal (RB, Sigma, U.S.A.) in artificial cerebral spinal fluid (aCSF). The RB concentration was 20 mg/mL. A cortical region was centered in the imaging field and illuminated with a green laser (543 nm, 5 mW) using a 0.8-NA 40× water-immersion objective (Nikon, Tokyo). The clot formation was monitored in real time until the targeted vessel or downstream capillaries were firmly occluded. Stable clots were subsequently identified by a non-fluorescent vessel segmentation ending with highly fluorescent regions. […] Treatments, MRS4322 (0.16 mg/kg; 0.5 μmol/kg) or MRS2365 (0.24 mg/kg; 0.5 μmol/kg) were introduced via intraperitoneal injections (i.p.). […] Animals and Photothrombosis-induced Stroke: Stroke was performed as described in Zheng et al 2010 (PloS One 5 (12): e14401). Female C57Bl/6 mice (4-6 months) were used in this study. From the methods of this manuscript: Mice were anesthetized at 3% isoflurane with 100% oxygen and subsequently maintained at 1% isoflurane through a nosecone. Depth of anesthesia was monitored and regulated according to vital signs, pinch withdrawal and eye blinks. Body temperature was maintained at 37° C. by a feedback-controlled heating pad (Gaymar T/Pump). Vital signs including oxygen saturation, respiratory rate, and heart rate were continuously monitored by using the MouseOx system (STARR Life Sciences). The hair on each mouse's head was trimmed and a small incision was made in the scalp to expose the skull. A custom-made stainless steel plate was glued to the skull with VetBond Tissue Adhesive (3M, St Paul, MN). A cranial thinned-skull imaging window was created over the right primary somatosensory cortex (˜1.5 mm posterior to Bregma and 2 mm lateral from midline) depending on the experiment. In brief, a large region of the skull was first thinned with the electric drill and then further thinned with a surgical blade. The final thickness of the thinned skull was approximately 50 μm. After the cranial imaging window was created, mice were transferred to microscope stage and used for photothrombosis or imaging experiments. For the repeat imaging experiments, the plate was carefully detached from the skull and the scalp was sutured (Ethicon 6-0 sild suture). After each experiment, the mice were either returned to cages until the next timepoint or sacrificed. All procedures were approved by the Institutional Animal Care and Use Committee (IACUC) at University of Texas Health Science Center at San Antonio. Thirty minutes following stroke or sham (uninjured), mice were treated with either vehicle (saline) or drugs (MRS4322, MRS2365, MRS5698 or Cl-IBMECA). Post photothrombotic infarction evaluation. The size of cerebral infarcts was evaluated using 2,3,5-Triphenyltetrazolium chloride (TTC) staining as described in Zheng et al 2010 (PloS One 5 (12): e14401). In brief, RB-induced lesions in brain slices were stained with TTC. TTC is a colorless dye that stains healthy brain tissue red when reduced by the mitochondrial enzyme succinyl dehydrogenase (Bederson J B et al., 1986). The absence of staining in necrotic tissue is then used to define the area of a brain infarction. Mice were sacrificed by cervical dislocation, their brains removed and then placed in ice cold HBSS for 3 minutes. […] The sections were fixed in 10% buffered formaldehyde solution overnight at 4° C. Slices were imaged on a flatbed scanner (HP scanjet 8300) for analysis of the lesion size at 1200 dpi. Photothrombosis-induced Stroke: Photothrombosis was performed as described in Zheng et al. 2010 (PloS One 5 (12): e14401). […]

[2] = mouse plasma and tissue; Tosh et al. Purinergic Signalling (2015) 11:371-387; cited from earlier work
[3] = molecular target: T1, Human A3 (Homo sapiens, UniProt P0DMS8); conditions: J. Med. Chem. 2002 45:4471-4484 (Gao et al.); cited from earlier work
T1 sequence (P0DMS8 1-318): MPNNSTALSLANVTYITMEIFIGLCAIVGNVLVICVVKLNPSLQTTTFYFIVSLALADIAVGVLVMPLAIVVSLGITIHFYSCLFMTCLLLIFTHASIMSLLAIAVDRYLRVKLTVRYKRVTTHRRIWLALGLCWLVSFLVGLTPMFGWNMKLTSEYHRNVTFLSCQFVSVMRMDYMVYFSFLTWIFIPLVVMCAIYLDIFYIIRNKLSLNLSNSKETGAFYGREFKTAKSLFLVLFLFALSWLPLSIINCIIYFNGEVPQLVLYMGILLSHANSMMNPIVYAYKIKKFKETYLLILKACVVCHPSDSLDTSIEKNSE

[4] = tested on: GFAP expression; assay: Traumatic brain injury (TBI) in mice, Western blot analysis for GFAP; format: in vivo; conditions: summary statement
Description: Animals and traumatic brain injury (TBI): TBI was performed with a controlled closed skull injury model as described in […] al. 2012 (J. Neurotrauma 30, 55-66). Following the method described therein, a pneumatic impact device was used to generate a moderate TBI leaving the skull and dura matter intact. To achieve this, C57BL/6 mice were anesthetized with isoflurane (3% induction, 1% maintenance) in 100% oxygen. A body temperature of 37° C. was maintained using a temperature-controlled heated surgical table. A small midline incision was made on the scalp using aseptic surgical techniques. A 5 mm stainless steel disc was positioned on the skull and fixed using superglue on the right parietal bone between bregma and lamda over the somatosensory cortex. The mouse was then positioned on a stage directly under the pneumatic impact tip. […] Scalp incisions were closed using 4-0 nylon braided suture and antibiotic ointment applied to the incision. Mice were placed in a Thermo-Intensive Care Unit (Braintree Scientific model FV-1; 37° C.; 27% 02) and monitored until fully awake and moving freely. […] Western Blot Analysis for GFAP: At selected survival times, mice were anesthetized under isoflurane and sacrificed. The brain was removed and placed on ice for dissection into impacted and non-impacted brain hemispheres. […] The homogenate was transferred to a 2 mL tube and centrifuged at 1000 g for 10 minutes at 4° C. and the supernatant was collected and analyzed. Protein concentration was determined by the BCA assay using a 1:50 dilution. 100 μg of protein was removed as an aliquot for each sample and Laemmli buffer containing β-mercaptoethanol added and the sample placed in a heat block for 3 minutes at 95° C. Samples were loaded on a 12% gel and ran at 80 V for 20 minutes followed by 40 minutes at 130 V. Samples were transferred to nitrocellulose membrane at 100 V for 1 hour. The membrane was blocked with 5% milk in TBS-T for 30 minutes. GFAP (1:1000-Imgenex IMG-5083-A) was added and placed at 4° C. overnight. The membrane was washed with TBS-T three times for 10 minutes. Secondary antibody for GFAP (Donkey anti-rabbit HRP conjugated (ImmunoJackson Laboratories; 711-035-152; 1:20000) was applied at room temperature for 1 hour. The membranes were washed with TBS-T for 15 minutes (3 times) and developed using the Western Lightning Plus-ECL kit (PerkinElmer, Inc.) following manufacturer's directions.

CNC(=O)[C@@]12C[C@@H]1[C@@H](n1cnc3c(NCc4cccc(Cl)c4)nc(C#Cc4ccc(F)c(F)c4)nc31)[C@H](O)[C@@H]2O [MRS5698, reference compound]
size of brain infarctions in mice pretreated with the A3 receptor antagonist MRS1523 ([1]; MRS1523 2 mg/kg i.p. at 0 and 2 hours, treatment within 30 minutes of clot formation, 24 hours): not reduced
protein binding reported in the literature [2]: 99.88%

CCCOC(=O)c1c(-c2ccccc2)nc(CC)c(C(=O)SCC)c1CCC [MRS1523, reference compound]
effect of antagonist on neuroprotection of MRS4322 and MRS2365 treatments after stroke ([1]; MRS1523 2 mg/kg i.p. at 0 and 2 hours): inhibits neuroprotection

Nc1nc(Cl)nc2c1ncn2[C@H]1[C@H](O)[C@H](O)[C@]2(CO)C[C@H]12 [MRS1873]
EC50 [3]: 803 nM
size of the brain infarction (TTC staining) ([1]; Example 7: mice, 100 ul of 100 uM i.p. within 30 minutes of clot formation, 24 hours after stroke, versus vehicle): significantly reduced

CNC(=O)[C@H]1O[C@@H](n2cnc3c(NCc4cccc(I)c4)nc(Cl)nc32)[C@H](O)[C@@H]1O [Cl-IB-MECA, 2-Chloro-N^6-(3-iodobenzyl)-adenosine-5′-N-methyluronamide, reference compound]
efficacy in the mouse TBI model [4]: weakly active
